{"source": "patent US20100261682A1", "about": "“Method and Means for the Treatment of Cachexia” (Bioneris AB, priority 2007, published 2010)", "key": {"[1]": {"tested_on": "PIF (proteolysis inducing factor) induced protein degradation in murine myotubes", "test": "PIF-induced protein degradation in murine myotubes", "type": "cell-based", "conditions": "AT 100 μM, 2 h prior to addition of PIF", "procedure": "(§1) To investigate the mechanism by which AT protects lean body mass in cachexia, further experiments were carried out in vitro using murine myotubes as a surrogate model of skeletal muscle. Incubation with either PIF or angiotensin II (Ang II) induced protein degradation with a characteristic bell-shaped dose-response curve as previously reported (Smith et al., 2004, Br. J. Cancer, and Tisdale et al., 2006, Cell. Sig) with the maximal effect of PIF at 4.2 nM and Ang II at 0.5 μM (FIGS. 5 and 8)."}, "caspase 3": {"tested_on": "caspase 3", "test": "Caspase 3 activity in gastrocnemius muscle", "type": "in vivo, NMRI mice", "conditions": "40 mg/kg; still significantly higher than in non-tumour-bearing animals", "procedure": "(§2) Administration of alpha-trinositol. Mice (n=6) bearing the MAC16 tumour were treated with AT (40 mg/kg) s.c., 3 times per day, for 5 days, while a control group received PBS. Protein synthesis and degradation were determined by the incorporation and release of L-[2,6-^3H]phenylalanine, as described in Smith et al., Cancer Res., 2005; 65:277-83. On the fourth day of treatment half of the group administered 0.4 mmol/L L-[2,6-^3H]phenylalanine in PBS (100 μl) by i.p. administration.\nDetermination of Caspase activity. The activity of caspase 3 was determined by the release of 7-amino-4-methylcoumarin (AMC) from the specific substrate AcDEVD-AMC in the presence or absence of the caspase 3 inhibitor AcDEVD-CHO. […] The supernatant (50 μg protein) was incubated with the caspase 3 substrate for 1 h and the increase in fluorescence due to AMC was determined at an excilation wavelength of 370 nm and an emission wavelength of 430 nm. […] The increase in fluorescence due to the release of 7-amino-4-trifluoro-methylcoumarin (AFC) was measured with an excitation wavelength of 400 nm and an emission of 505 nm."}, "mTOR": {"tested_on": "mTOR", "test": "Western blot of gastrocnemius muscle: phosphorylated (Ser2448) mTOR", "type": "in vivo, NMRI mice", "conditions": "40 mg/kg; after 4 days treatment", "procedure": "as §2\n(§3) Western blot analysis Gastrocnemius muscle (10 mg) was homogenised in Phosphosafe™ Extraction Reagent (500 μl) and centrifuged at 15000 g for 15 min. Samples of the cytosolic proteins (5 μg) were loaded on either a 10% (mTOR, myosin, eIF4E and eIF4G) 12% (PKR, eIF2α and actin) or 15% (4E-BP1) sodium dodecylsulphate-polyacrylamide gel (SDS-PAGE) and electrophoresed at 180 V for approximately 1 h. The extent of phosphorylation of 4E-BP1, and the association of 4E-BP1 and eIF4G with eIF4E was determined by Western blotting when eIF4E was extracted from the muscle samples by m^7GTP-Sepharose 4B-affinity binding, as previously described Eley ey al., Biochem J., 2007; 407:113-20, by loading 20 μg of protein. […] Blots were scanned by a densitometer to quantify differences."}, "[2]": {"tested_on": "Ang II induced protein degradation in murine myotubes", "test": "Ang II-induced protein degradation in murine myotubes", "type": "cell-based", "conditions": "AT 100 μM, 2 h prior to addition of Ang II", "procedure": "as §1"}, "eIF2α": {"tested_on": "eIF2α", "test": "Western blot of gastrocnemius muscle: phospho eIF2α/total eIF2α", "type": "in vivo, NMRI mice", "conditions": "40 mg/kg; tumour-bearing animals", "procedure": "as §2, §3"}, "[3]": {"tested_on": "4E-BP1 associated with eIF4E", "test": "Western blot after m7GTP-Sepharose extraction: 4E-BP1 associated with eIF4E", "type": "in vivo, NMRI mice", "conditions": "40 mg/kg", "procedure": "as §2, §3"}, "[4]": {"tested_on": "gastrocnemius muscle protein synthesis and degradation", "test": "Protein synthesis and degradation in gastrocnemius muscle of MAC16 tumour-bearing mice", "type": "in vivo, NMRI mice", "conditions": "40 mg/kg s.c., 3 times per day; p<0.001 vs control", "procedure": "as §2\nProtein analysis. After 24 h the animals were terminated and the gastrocnemius muscle was removed, washed with PBS and RPMI 1640, and the release of radioactivity during incubation for 2 h in RPMI 1640 was determined. Protein bound activity was determined by homogenising the muscles in 2% perchloric acid, and determining the radioactivity in the precipitate. Protein degradation was calculated by dividing the amount of radioactivity released into the medium over a 2 h period by the specific activity of the protein-bound radioactivity. To determine protein synthesis gastrocnemius muscles were incubated for 2 h in RMPI 1640, without phenol red, in the presence of L-[2,6-^3H]phenylalanine (37 MBq), and under an atmosphere of O2/CO2 (19:1). […] The rate of protein synthesis was calculated by dividing the protein-bound radioactivity by the acid-soluble material."}, "[5]": {"tested_on": "Angiotensin II induced chymotrypsin like activity in C2C12 myotubes", "test": "Angiotensin II induced chymotrypsin-like activity in C2C12 myotubes", "type": "cell-based, murine", "conditions": "AT 100 μM", "source_text": "Protein degradation induced by PIF is mediated through up-regulation of the ubiquitin-proteasome pathway (Tisdale et al., 2004, Br. J. Cancer). […] A hexanoyl ester of AT (lipid soluble AT) has been produced as a slow release form, after hydrolysis by esterase."}, "myosin": {"tested_on": "myosin", "test": "Western blot of gastrocnemius muscle: myosin", "type": "in vivo, NMRI mice", "conditions": "40 mg/kg; treatment for 4 days; reduced by 90% in untreated tumour-bearing mice", "procedure": "as §2, §3"}, "4E-BP1": {"tested_on": "4E-BP1", "test": "Western blot of gastrocnemius muscle: phosphorylation of 4E-BP1", "type": "in vivo, NMRI mice", "conditions": "40 mg/kg; 60% reduction in untreated tumour-bearing animals", "procedure": "as §2, §3"}, "PKR": {"tested_on": "PKR", "test": "Western blot of gastrocnemius muscle: phospho PKR/total PKR", "type": "in vivo, NMRI mice", "conditions": "40 mg/kg; tumour-bearing animals", "procedure": "as §2, §3"}}}
{"smiles": "O=P(O)(O)O[C@@H]1[C@H](OP(=O)(O)O)[C@H](O)[C@@H](O)[C@H](O)[C@H]1OP(=O)(O)O", "note": "[alpha-trinositol, 1-D-Myo-inositol 1,2,6-triphosphate]", "values": [{"measurement": "effect on PIF-induced protein degradation", "setting": "[1]", "result": "completely attenuated protein degradation down to basal levels"}, {"measurement": "activity of caspase-3 in gastrocnemius muscle", "setting": "caspase 3", "result": "significantly reduced"}, {"measurement": "level of the phosphorylated (Ser2448) form of mTOR in gastrocnemius muscle", "setting": "mTOR", "result": "completely reversed up to the values found in non tumour-bearing animals"}, {"measurement": "effect on Ang II-induced protein degradation", "setting": "[2]", "result": "completely attenuated protein degradation down to basal levels"}, {"measurement": "expression of phospho eIF2α (ratio to total eIF2α)", "setting": "eIF2α", "result": "significant decrease"}, {"measurement": "tumour-induced increase of 4E-BP1 associated with eIF4E", "setting": "[3]", "result": "completely attenuated"}, {"measurement": "decrease in protein degradation in the gastrocnemius muscle", "setting": "[4]", "result": 20, "unit": "%"}, {"measurement": "increase of protein synthesis in the gastrocnemius muscle", "setting": "[4]", "result": 50, "unit": "%"}, {"measurement": "effect on Ang II-induced chymotrypsin-like enzyme activity", "setting": "[5]", "result": "completely attenuated"}, {"measurement": "myosin expression in gastrocnemius muscle", "setting": "myosin", "result": "returned to values at the same level as in non-tumour animals"}, {"measurement": "tumour-induced reduction in phosphorylation of 4E-BP1 (Thr37/46)", "setting": "4E-BP1", "result": "completely attenuated"}, {"measurement": "expression of phospho PKR (ratio phosphoPKR/total PKR)", "setting": "PKR", "result": "significant decrease"}]}
